According to PMC2929395 (Chemistry & biology, 2010):
Numbering of substitutions follows the chain as printed.

Tests used:
[1] = biological target: T1, PanK3(A269F) (Homo sapiens, UniProt Q9H999, A269F); test: TNP-ATP binding to PanK3
T1 sequence (Q9H999 1-370 A269F): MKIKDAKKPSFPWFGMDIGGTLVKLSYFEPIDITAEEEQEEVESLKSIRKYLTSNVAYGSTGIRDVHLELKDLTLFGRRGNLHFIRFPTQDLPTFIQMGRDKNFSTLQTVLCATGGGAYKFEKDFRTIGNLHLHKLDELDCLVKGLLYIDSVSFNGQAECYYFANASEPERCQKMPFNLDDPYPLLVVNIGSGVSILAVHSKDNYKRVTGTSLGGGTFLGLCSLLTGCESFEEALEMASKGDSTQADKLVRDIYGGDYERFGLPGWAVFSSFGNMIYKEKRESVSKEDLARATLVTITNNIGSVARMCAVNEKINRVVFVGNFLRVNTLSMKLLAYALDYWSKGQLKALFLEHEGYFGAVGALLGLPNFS

[2] = biological target: PanK3 (Homo sapiens, UniProt Q9H999); test: TNP-ATP fluorescent ATP analog binding to PanK3
[3] = biological target: T2, PanK3(R207A) (Homo sapiens, UniProt Q9H999, R207A); test: TNP-ATP binding to PanK3
T2 sequence (Q9H999 1-370 R207A): T1 sequence (Q9H999 1-370 A269F) with R207A, F269A

[4] = biological target: T3, PanK3(A267F) (Homo sapiens, UniProt Q9H999, A267F); test: TNP-ATP binding to PanK3
T3 sequence (Q9H999 1-370 A267F): T1 sequence (Q9H999 1-370 A269F) with A267F, F269A

Chain of PanK3 (Q9H999 whole entry): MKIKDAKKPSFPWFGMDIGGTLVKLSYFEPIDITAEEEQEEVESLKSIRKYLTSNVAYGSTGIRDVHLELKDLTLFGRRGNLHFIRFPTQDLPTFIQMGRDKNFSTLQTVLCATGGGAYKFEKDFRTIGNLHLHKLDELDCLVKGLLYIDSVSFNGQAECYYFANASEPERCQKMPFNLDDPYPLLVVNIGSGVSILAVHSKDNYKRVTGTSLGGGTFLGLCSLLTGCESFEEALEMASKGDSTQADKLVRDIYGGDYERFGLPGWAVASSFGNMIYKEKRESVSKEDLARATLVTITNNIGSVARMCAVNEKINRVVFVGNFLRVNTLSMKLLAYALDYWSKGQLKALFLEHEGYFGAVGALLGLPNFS

## Nc1ncnc2c1ncn2[C@@H]1O[C@H](COP(=O)(O)OP(=O)(O)OP(=O)(O)O)[C@H]2OC3(O[C@H]21)C([N+](=O)[O-])=CC(=[N+]([O-])[O-])C=C3[N+](=O)[O-] (stereo partly shown) [TNP-ATP]
[1]
  Kd: 5.4 ± 0.8 µM
[2]
  Kd: 3.6 ± 0.9 µM
[3]
  Kd: 3 ± 0.3 µM
[4]
  Kd: 3.1 ± 0.8 µM
